# From patent publication EP4342885A1, “N-(3-(AMINOMETHYL)-PHENYL)-5-(4-PHENYL)-5-(TRIFLUOROMETHYL)-4,5-DIHYDROISOXAZOL-3-AMINE DERIVATIVES AND SIMILAR COMPOUNDS AS PESTICIDES” (priority 2022, dated 2024)
# Experiments:
# Format in all cases: in vivo
# Aedes aegypti = test: whole plant or invertebrate; settings: 48 h, larval mortality, 2 days, read-out: mortality in comparison with untreated controls
# Method: For evaluating control of Yellow Fever Mosquito, the test unit consisted of 96-well-microtiter plates containing 200µl of tap water per well and 5-15 freshly hatched A. aegypti larvae. The active compounds were formulated using a solution containing 75% (v/v) water and 25% (v/v) DMSO. Different concentrations of formulated compounds or mixtures were sprayed onto the insect diet at 2.5µl, using a custom-built micro atomizer, at two replications.
# After application, microtiter plates were incubated at 28 ± 1°C, 80 ± 5 % RH for 2 days. Larval mortality was then visually assessed.
# Plutella xylostella = test: Diamond back moth (Plutella xylostella) control, 96-well microtiter plate insect diet with eggs; settings: 120 h, read-out: mortality in comparison with untreated controls
# Method: For evaluating control of […] (Plutella xylostella) the test unit consisted of 96-well-microtiter plates containing an insect diet and 15-25 P. xylostella eggs.
# The compounds or mixtures were formulated using a solution containing 75% water and 25% DMSO. Different concentrations of formulated compounds or mixtures were sprayed onto the insect diet at 5µl, using a custom-built micro atomizer, at two replications.
# After application, microtiter plates were incubated at 28 ± 1°C, 80 ± 5 % RH for 5 days. Egg and larval mortality was then visually assessed.
# Anthonomus grandis = test: Boll weevil (Anthonomus grandis) control, 96-well microtiter plate insect diet with eggs; settings: 120 h, read-out: mortality in comparison with untreated controls
# Method: For evaluating control of boll weevil, the test unit consisted of 96-well-microtiter plates containing an insect diet and 5-10 A. grandis eggs.
# The compounds were formulated using a solution containing 75% v/v water and 25% v/v DMSO. Different concentrations of formulated compounds were sprayed onto the insect diet at 5µl, using a custom-built micro atomizer, at two replications.
# After application, microtiter plates were incubated at about 25 ± 1°C and about 75 ± 5 % relative humidity for 5 days. Egg and larval mortality were then visually assessed.
# Myzus persicae = test: Green peach aphid (Myzus persicae), mixed life stages, systemic test via artificial diet under membrane; settings: 72 h, read-out: mortality in comparison with untreated controls
# Excerpt: For evaluating control of Green Peach Aphid through systemic means the test unit consisted of 96-well-microtiter plates containing liquid artificial diet under an artificial membrane. The compounds were formulated using a solution containing 75% v/v water and 25% v/v DMSO. Different concentrations of formulated compounds were pipetted into the aphid diet, using a custom-built pipette, at two replications. After application, 5 - 8 adult aphids were placed on the artificial membrane inside the microtiter plate wells. The aphids were then allowed to suck on the treated aphid diet and incubated at about 23 ± 1°C and about 50 ± 5 % relative humidity for 3 days. Aphid mortality and fecundity was then visually assessed.
Structure (SMILES),mortality at 800 ppm (Aedes aegypti),mortality at 800 ppm (Plutella xylostella),mortality at 800 ppm (Anthonomus grandis),mortality at 800 ppm (Myzus persicae)
N#Cc1ccc(C(=O)NCc2cc(NC3=NOC(c4ccc(F)c(Cl)c4)(C(F)(F)F)C3)ccc2Cl)s1 (stereo not drawn) [I-34],≥ 75%,≥ 75%,≥ 75%,
COCC(=O)NCc1cc(NC2=NOC(c3cc(Cl)cc(Cl)c3)(C(F)(F)F)C2)ccc1F (stereo not drawn) [I-9],,,≥ 75%,≥ 75%
O=C(Cn1cccn1)NCc1cc(NC2=NOC(c3ccc(F)c(Cl)c3)(C(F)(F)F)C2)ccc1Cl (stereo not drawn) [I-38],≥ 75%,≥ 75%,≥ 75%,
O=C(CN1CCCC1=O)NCc1cc(NC2=NOC(c3ccc(F)c(Cl)c3)(C(F)(F)F)C2)ccc1Cl (stereo not drawn) [I-31],≥ 75%,,,≥ 75%
CS(=O)(=O)N1CC(C(=O)NCc2cc(NC3=NOC(c4ccc(F)c(Cl)c4)(C(F)(F)F)C3)ccc2Cl)C1 (stereo not drawn) [I-46],≥ 75%,≥ 75%,≥ 75%,≥ 75%
N#CCC(=O)NCc1cc(NC2=NOC(c3ccc(F)c(Cl)c3)(C(F)(F)F)C2)ccc1Cl (stereo not drawn) [I-51],≥ 75%,≥ 75%,≥ 75%,≥ 75%
O=C(CNC(=O)C1CC1)NCc1cc(NC2=NOC(c3ccc(F)c(Cl)c3)(C(F)(F)F)C2)ccc1Cl (stereo not drawn) [I-26],≥ 75%,≥ 75%,≥ 75%,≥ 75%
O=C(CC1OCCO1)NCc1cc(NC2=NOC(c3ccc(F)c(Cl)c3)(C(F)(F)F)C2)ccc1Cl (stereo not drawn) [I-33],≥ 75%,≥ 75%,≥ 75%,
O=C(Cn1cncn1)NCc1cc(NC2=NOC(c3ccc(F)c(Cl)c3)(C(F)(F)F)C2)ccc1Cl (stereo not drawn) [I-40],≥ 75%,≥ 75%,≥ 75%,≥ 75%
COC(=O)N1CCCC1C(=O)NCc1cc(NC2=NOC(c3cc(Cl)cc(Cl)c3)(C(F)(F)F)C2)ccc1F (stereo not drawn) [I-10],,,≥ 75%,
O=C(NCc1cc(NC2=NOC(c3cc(Cl)cc(Cl)c3)(C(F)(F)F)C2)ccc1F)c1ccccn1 (stereo not drawn) [I-11],,≥ 75%,≥ 75%,
O=C(CC1CCS(=O)(=O)C1)NCc1cc(NC2=NOC(c3ccc(F)c(Cl)c3)(C(F)(F)F)C2)ccc1Cl (stereo not drawn) [I-49],≥ 75%,,≥ 75%,≥ 75%
O=C(NCc1cc(NC2=NOC(c3ccc(F)c(Cl)c3)(C(F)(F)F)C2)ccc1Cl)C1CC=CC1 (stereo not drawn) [I-29],≥ 75%,≥ 75%,≥ 75%,≥ 75%
Cn1ncc(C#N)c1C(=O)NCc1cc(NC2=NOC(c3ccc(F)c(Cl)c3)(C(F)(F)F)C2)ccc1Cl (stereo not drawn) [I-37],≥ 75%,≥ 75%,,
O=C(NCc1cc(NC2=NOC(c3cc(Cl)cc(Cl)c3)(C(F)(F)F)C2)ccc1F)c1ncon1 (stereo not drawn) [I-7],,,≥ 75%,
CS(=O)(=O)NCC(=O)NCc1cc(NC2=NOC(c3ccc(F)c(Cl)c3)(C(F)(F)F)C2)ccc1Cl (stereo not drawn) [I-47],≥ 75%,≥ 75%,≥ 75%,≥ 75%
O=C(Cc1ccsc1)NCc1cc(NC2=NOC(c3ccc(F)c(Cl)c3)(C(F)(F)F)C2)ccc1Cl (stereo not drawn) [I-44],≥ 75%,≥ 75%,≥ 75%,≥ 75%
O=C(Cc1ccccc1)NCc1cc(NC2=NOC(c3ccc(F)c(Cl)c3)(C(F)(F)F)C2)ccc1Cl (stereo not drawn) [I-27],≥ 75%,,,
